ChEMBL document CHEMBL1221178, “Allosteric control of an ionotropic glutamate receptor with an optical switch” (Nat Chem Biol, 2006)
The source made the active and inactive calls. The rule behind the calls is not given here.

Assays:
Type in all cases: functional, cell-based
[1] = test system: Glutamate receptor ionotropic, kainate 2 (Homo sapiens), Q13002 [L439C]; assay: Agonist activity at iGluR6 L439C mutant expressed in human HEK293 cells assessed as increase in intracellular Ca2+ levels illuminated at 380 nm wavelength by […] staining based fluorimetric method
Sequence of Glutamate receptor ionotropic, kainate 2 (Homo sapiens), Q13002 [L439C] (Q13002 whole entry L439C): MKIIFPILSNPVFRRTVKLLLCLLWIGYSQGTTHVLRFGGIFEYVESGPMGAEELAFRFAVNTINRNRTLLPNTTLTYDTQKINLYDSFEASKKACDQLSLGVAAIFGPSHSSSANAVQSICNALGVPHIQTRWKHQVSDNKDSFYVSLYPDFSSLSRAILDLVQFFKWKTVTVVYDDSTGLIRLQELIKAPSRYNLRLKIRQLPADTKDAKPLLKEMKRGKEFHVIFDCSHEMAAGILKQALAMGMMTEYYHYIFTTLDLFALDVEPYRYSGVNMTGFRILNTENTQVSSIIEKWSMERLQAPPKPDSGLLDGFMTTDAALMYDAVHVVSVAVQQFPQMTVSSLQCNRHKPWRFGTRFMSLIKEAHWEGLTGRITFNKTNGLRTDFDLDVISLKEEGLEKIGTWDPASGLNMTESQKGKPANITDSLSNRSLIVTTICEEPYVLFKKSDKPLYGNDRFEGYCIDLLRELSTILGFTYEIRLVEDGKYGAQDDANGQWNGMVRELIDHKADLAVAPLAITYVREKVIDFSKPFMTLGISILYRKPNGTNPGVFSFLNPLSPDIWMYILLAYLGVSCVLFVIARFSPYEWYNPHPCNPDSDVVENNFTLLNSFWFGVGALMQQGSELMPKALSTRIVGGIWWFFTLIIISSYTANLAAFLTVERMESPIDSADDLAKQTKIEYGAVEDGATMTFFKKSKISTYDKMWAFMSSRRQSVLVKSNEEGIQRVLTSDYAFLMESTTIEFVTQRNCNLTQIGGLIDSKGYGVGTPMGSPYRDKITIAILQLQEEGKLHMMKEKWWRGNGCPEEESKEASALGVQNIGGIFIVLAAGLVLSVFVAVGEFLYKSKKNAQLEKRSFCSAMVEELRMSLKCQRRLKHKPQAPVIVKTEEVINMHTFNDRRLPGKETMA

[2] = test system: Glutamate receptor ionotropic, kainate 2 (Homo sapiens), Q13002 [L439C]; assay: Agonist activity at iGluR6 L439C mutant expressed in human HEK293 cells assessed as increase in intracellular Ca2+ levels illuminated at 500 nm wavelength by […] staining based fluorimetric method
[3] = test system: Glutamate receptor ionotropic, kainate 2 (Homo sapiens), Q13002 [L439C]; assay: Agonist activity at MAG conjugated light activated iGluR6 L439C mutant expressed in human HEK293 cells assessed as increase inward currents by whole cell patch clamp method

Row | Activity [1] | Activity [2] | Activity [3] | SMILES
1 | Active | inactive |  | N[C@@H](C[C@@H](CCCC(=O)NCC(=O)Nc1ccc(/N=N/c2ccc(NC(=O)CN3C(=O)C=CC3=O)cc2)cc1)C(=O)O)C(=O)O
2 |  |  | Active | N[C@@H](C[C@@H](CCCC(=O)NCC(=O)Nc1ccccc1)C(=O)O)C(=O)O
3 |  |  | Active | N[C@@H](CCC(=O)O)C(=O)O
